Laboratory results from PubChem BioAssay AID1918998 (Molecular Pharmacology Branch, DTP, NCI, 2023).

Test system: 521955-158-R2-J5-PDC complex spheroid growth
Experiment: Anticancer human tumor 521955-158-R2-J5-PDC patient-derived pancreatic carcinoma cell line growth inhibition [AhR]
Conditions: for IC50: curve of first compound; for viability, T/C: stronger effect = lower value
Text: Multicellular complex tumor spheroid response to aryl hydrocarbon receptor antagonists in combination with a variety of drugs and investigational agents in selected tumor cell lines
The current study was undertaken to assess response to aryl hydrocarbon receptor antagonists in combination with standard-of-care drugs and investigational agents in solid tumor complex spheroid models. Complex spheroids include a stromal component modeled by human endothelial cells (HUVEC) and fibroblasts modeled by human mesenchymal stem cells (MSCs). The concentration ranges selected for each drug and investigational agent were based upon clinically achievable concentrations if the clinical Cmax of the agent was known.
Compounds. The drugs and investigational agents: BAY 2416964 (NSC825713), GNF351 (NSC835774), CH-223191 (NSC835775), CPI-455 (NSC825282), aza-TdCyd (NSC777586), decitabine (NSC127716), belinostat (NSC758774), entinostat (NSC756642), pevonedistat (NSC761192), tazemetostat (NSC777109), talazoparib (NSC765396), olaparib (NSC753686), selinexor (NSC780203), nedisertib (M3814, NSC802822), bortezomib (NSC756655), venetoclax (NSC766270), doxorubicin (NSC123127), elimusertib (BAY189344, NSC800525), ceralasertib (AZD6738, NSC777638), TAK-243 (NSC785004), alisertib (NSC759677), etoposide (NSC141540), topotecan (NSC609699), eribulin (NSC707389), gemcitabine (NSC613327), carboplatin (NSC241240), cisplatin (NSC119875), and SN-38 (NSC673596) were obtained from the National Cancer Institute (NCI) Developmental Therapeutics Program Chemical Repository (32). The FDA-approved anticancer drug set is available from the Developmental Therapeutics Program at https://dtp.cancer.gov/organization/dscb/obtaining/available plates.htm. […] The stock solutions were prepared in dimethyl sulfoxide (DMSO, Sigma-Aldrich, St. Louis, MO, cat. D2650), except for the platinum compounds which were prepared in saline (Quality Biological, Gaithersburg, MD, cat. 114-055-101), at 800-fold the tested concentration and stored at -70 degrees C prior to their use. All drugs and investigational agents were tested over a range starting from a high concentration at or near the clinical Cmax and decreasing in half-log increments. If the clinical Cmax for an agent had not been determined, the highest concentration tested was 10 microM (Table 1).
Cell Culture. All cells were maintained in an incubator at 37 degrees C and 5% CO2 with 95% humidity. The PDC lines were cultured according to standard operating procedures established by the NCI PDMR (https://pdmr.cancer.gov). Briefly, all PDCs were thawed and cultured in Matrigel-coated flasks prepared with a working solution of 1X Ham's F-12 nutrient mix, without supplementation (Invitrogen, Waltham, MA, cat. 11765054), 100 U/mL penicillin-streptomycin (Invitrogen, cat. 15140122), and 2.5% Matrigel (Corning Inc., Corning, NY, cat. 354248) for the first three passages. All PDCs were cultured in complete DMEM/F-12 media containing advanced DMEM/F-12 (Invitrogen, cat. 12634028), 4.9% defined fetal bovine serum, heat inactivated (HyClone Laboratories Inc., Logan, UT, cat. SH30070.03HI), 389 ng/mL hydrocortisone (Sigma-Aldrich, cat. H4001), 9.7 ng/mL human EGF recombinant protein (Invitrogen, cat. PHG0313), 23.4 microg/mL adenine (Sigma-Aldrich, cat. A2786), 97.3 U/mL penicillin-streptomycin (Invitrogen, cat. 15140122), 1.9 mM L-glutamine (Invitrogen, cat. 25030081), and 9.7 microM Y-27632 dihydrochloride (Tocris Bioscience, Bristol, United Kingdom, cat. 1254). The PDCs were cultured in complete DMEM/F12 media without 10 microM Y-27632 dihydrochloride for at least two passages prior to the screen. The established cell lines NCI-H1341 and […] were cultured in DMEM/F-12, HEPES (Invitrogen, cat. 11330032), 5% defined fetal bovine serum (HyClone Laboratories Inc., cat. SH30070.03), ITS premix universal culture supplement [insulin (5 microg/mL), transferrin (5 microg/mL), and selenious acid (5 ng/mL)] […]
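Throughout, for viability, T/C: spheroids mix tumor cells with HUVEC endothelium and human MSC stroma; luminescence taken as viability surrogate after a week of drug exposure.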

CC(C)CC(NC(=O)C(Cc1ccccc1)NC(=O)c1cnccn1)B(O)O (stereo not given) + CC(CO)NC(=O)c1cc(-c2ccc(Cl)cc2)nn(-c2cnn(C)c2)c1=O
IC50 (second compound 0.1 µM): 4.38 nM | IC50 (second compound 0.316 µM): 5.36 nM | IC50 (second compound 1 µM): 4.34 nM | IC50 (second compound 3.16 µM): 4.86 nM | IC50 (second compound 10 µM): 4.16 nM | viability, T/C (second compound 0.1 µM, first compound 0.000949 µM): 78.8% | viability, T/C (second compound 0.1 µM, first compound 0.003 µM): 71.6% | viability, T/C (second compound 0.1 µM, first compound 0.00949 µM): 5.92% | viability, T/C (second compound 0.1 µM, first compound 0.03 µM): 2.45% | viability, T/C (second compound 0.1 µM, first compound 0.0949 µM): 2% | viability, T/C (second compound 0.1 µM, first compound 0.3 µM): 0.19% | viability, T/C (second compound 0.316 µM, first compound 0.000949 µM): 103% | viability, T/C (second compound 0.316 µM, first compound 0.003 µM): 94.7% | viability, T/C (second compound 0.316 µM, first compound 0.00949 µM): 6.1% | viability, T/C (second compound 0.316 µM, first compound 0.03 µM): 1.23% | viability, T/C (second compound 0.316 µM, first compound 0.0949 µM): 0.12% | viability, T/C (second compound 0.316 µM, first compound 0.3 µM): 1.89% | viability, T/C (second compound 1 µM, first compound 0.000949 µM): 113% | viability, T/C (second compound 1 µM, first compound 0.003 µM): 70.6% | viability, T/C (second compound 1 µM, first compound 0.00949 µM): 6.39% | viability, T/C (second compound 1 µM, first compound 0.03 µM): 2.84% | viability, T/C (second compound 1 µM, first compound 0.0949 µM): 0.51% | viability, T/C (second compound 1 µM, first compound 0.3 µM): 0.29% | viability, T/C (second compound 3.16 µM, first compound 0.000949 µM): 83.5% | viability, T/C (second compound 3.16 µM, first compound 0.003 µM): 81.6% | viability, T/C (second compound 3.16 µM, first compound 0.00949 µM): 6.11% | viability, T/C (second compound 3.16 µM, first compound 0.03 µM): 0.25% | viability, T/C (second compound 3.16 µM, first compound 0.0949 µM): 1.98% | viability, T/C (second compound 3.16 µM, first compound 0.3 µM): 1.99% | viability, T/C (second compound 10 µM, first compound 0.000949 µM): 68.2% | viability, T/C (second compound 10 µM, first compound 0.003 µM): 68.3% | viability, T/C (second compound 10 µM, first compound 0.00949 µM): 3.86% | viability, T/C (second compound 10 µM, first compound 0.03 µM): 0.37% | viability, T/C (second compound 10 µM, first compound 0.0949 µM): 0.52% | viability, T/C (second compound 10 µM, first compound 0.3 µM): 1.58%
